{"source": "patent US20180051309A1", "about": "“METHODS TO ASSESS MONITOR AND CONTROL BACTERIAL BIOFILMS” (ExxonMobil Research and Engineering Company, priority 2016, published 2018)", "test_system": "prophage regions DVU0189-DVU0221 and DVU2847-DVU2879", "experiment": "normalized gene expression (FPKM) of two prophage regions in planktonic and biofilm samples", "format": "cell-based, Desulfovibrio vulgaris", "conditions": "biofilm controlled via indole, FIG. 1", "description": "Overexpression of prophages is observed in biofilm samples when compared to planktonic samples.", "data": [{"molecule": "c1ccc2[nH]ccc2c1", "note": "[indole]", "values": [{"measurement": "phage genes expression", "value": "repressed phage genes expression"}]}]}
